SMILES strings stand for the structures.

Here are results for 8 molecules from US11141410B2 (MERCK SHARP & DOHME CORP., priority 2015, dated 2021).

Assay [1] has as its system MRSA COL (MB5393). Kind of assay: TarO Inhibitor/β-Lactam Synergy Assay (growth, OD600). The conditions noted are these: for MITC95 TarO inhibitor + 4 μg/mL IPM; Bacteria: SA_MB5393: in combination with 4 μg/mL imipenem (IPM); for MITC95 TarO inhibitor + 8 μg/mL DCX; Bacteria: SA_MB5393: in combination with 8 μg/mL dicloxacillin (DCX). It counts as cell-based, Staphylococcus aureus. The method, boiled down: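 TarO inhibitors titrated 2-fold from 200 μM (2% DMSO) against MRSA COL, 5×10^5 CFU in CAMHB, with β-lactam fixed at clinical breakpoint (imipenem 4 μg/ml or dicloxacillin 8 μg/ml). Incubated 20 h at 37 °C without shaking; relative growth read as OD600.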

A further assay has as its system MRSA COL (MB 5393). Description: In Vivo Murine Systemic Infection Model. Conditions: sc tid; for Bacteria recovered: kidneys 24 h post challenge, neutropenic mice. The arrangement: species or system Female Balb/C mice. As to the method:
The murine systemic infection model determines the therapeutic efficacy of TarO inhibitor/β-lactam combinations in vivo. Staphylococci bacteria can cause a systemic infection and establish a robust growth in the kidneys of the infected animal. MRSA COL can establish an infection even in the presence of β-lactam antibiotic due MRSA COL resistance to β-lactam antibiotics.
Female Balb/C mice were rendered neutropenic (immune suppressed) with a single 250 mg/kg intraperitoneal (ip) dose of cyclophosphamide on […]. MRSA COL (MB 5393) was grown for 16 hours in trypticase soy broth (TSB) at 37° C. and 0.5 mL of diluted culture (˜1×10^4 cfu) was administered intraperitoneal (IP). The TarO inhibitor and β-lactam antibiotic were administered alone or in combination by subcutaneous route at 2, 5 and 8 hr. post challenge (sc, tid). Twenty four hours post challenge mice were euthanized and the kidneys harvested, weighed, homogenized and plated to measure the total number of bacteria recovered as colony forming unit (CFU) remaining in compound treated groups as compared to vehicle (saline) or β-lactam antibiotic alone groups (statistical analyses was determined by one way ANOVA).

In assay [2] the test system is MRSA COL (MB5393). Description: TarO Inhibitor/β-Lactam Synergy Assay (growth, OD600). Type of assay: cell-based. The conditions noted are these: Staphylococcus aureus, TarO inhibitor alone, >200 μM = 95% growth inhibition not achieved, 20 hours at 37° C., read-out: MITC95 TarO inhibitor alone, Bacteria: SA_MB5393.

Take `C[C@H]1[C@@H](c2cccc(C(F)(F)F)c2)OC(=O)N1C(=O)NCc1cncc2ccccc12` [Example 18, (4S,5R)-N-(isoquinolin-4-ylmethyl)-4-methyl-2-oxo-5-[3-(trifluoromethyl)phenyl]-1,3-oxazolidine-3-carboxamide]: in the assay with MRSA COL (MB5393) [1], the “MITC95 TarO inhibitor + 4 μg/mL IPM; Bacteria: SA_MB5393” value (“MITC95 TarO inhibitor + 4 μg/mL IPM” below) is 0.23 µM and the “MITC95 TarO inhibitor + 8 μg/mL DCX; Bacteria: SA_MB5393” value (“MITC95 TarO inhibitor + 8 μg/mL DCX” for short) amounted to 1.95 µM. Also, in the assay with MRSA COL (MB 5393) (TarO inhibitor alone 50 mg/kg), the “Fold reduction vs. vehicle alone” value is given as −0.9 and the Bacteria recovered is 6.6×10^7 cfu/g kidney. In the assay on MRSA COL (MB5393) [2], the IC95 was > 200 µM.

With `COc1cc(C(F)(F)F)nc([C@@H]2OC(=O)N(C(=O)NCc3cncc4ccccc34)[C@H]2C)n1` [Example 96, (4S,5R)—N-(isoquinolin-4-ylmethyl)-5-(4-methoxy-6-(trifluoromethyl)pyrimidin-2-yl)-4-methyl-2-oxooxazolidine-3-carboxamide], in the assay with MRSA COL (MB5393) [1], the “MITC95 TarO inhibitor + 4 μg/mL IPM” value came to 4.17 µM and the “MITC95 TarO inhibitor + 8 μg/mL DCX” value was found to be 25 µM. The IC95 in the assay with MRSA COL (MB5393) [2] is > 200 µM.

For `C[C@H]1[C@@H](c2cc(N3CCC(F)(F)C3)cc(C(F)(F)F)c2)OC(=O)N1C(=O)NCc1cccc2cncnc12` [Example 97, (4S,5R)-5-(3-(3,3-difluoropyrrolidin-1-yl)-5-(trifluoromethyl)phenyl)-4-methyl-2-oxo-N-(quinazolin-8-ylmethyl)oxazolidine-3-carboxamide], in the assay with MRSA COL (MB5393) [1], the “MITC95 TarO inhibitor + 4 μg/mL IPM” value turned out to be 0.42 µM and the “MITC95 TarO inhibitor + 8 μg/mL DCX” value is 3.32 µM. Also, in the assay on MRSA COL (MB5393) [2], the IC95 was > 200 µM.

On to `C[C@H]1[C@@H](c2cc(N(C)C)cc(C(F)(F)F)c2)OC(=O)N1C(=O)NCc1cncc2ccccc12` [Example 98, (4S,5R)-5-[3-(dimethylamino)-5-(trifluoromethyl)phenyl]-N-(isoquinolin-4-ylmethyl)-4-methyl-2-oxo-1,3-oxazolidine-3-carboxamide], for which, in the assay with MRSA COL (MB5393) [1], the “MITC95 TarO inhibitor + 4 μg/mL IPM” value came to 0.01 µM and the “MITC95 TarO inhibitor + 8 μg/mL DCX” value stood at 0.41 µM. Besides, the IC95 in the assay with MRSA COL (MB5393) [2] is > 200 µM.

Take `O=C(NCc1cncc2ccccc12)N1C(=O)O[C@H](c2cc(F)cc(C(F)(F)F)c2)[C@@H]1CCO` [Example 99, (4S,5R)-5-(3-fluoro-5-(trifluoromethyl)phenyl)-4-(2-hydroxyethyl)-N-(isoquinolin-4-ylmethyl)-2-oxooxazolidine-3-carboxamide]: in the assay with MRSA COL (MB5393) [1], the “MITC95 TarO inhibitor + 4 μg/mL IPM” value amounted to 18.75 µM and the “MITC95 TarO inhibitor + 8 μg/mL DCX” value stood at 100 µM. Further, the IC95 in the assay on MRSA COL (MB5393) [2] was > 200 µM.

In the case of `C[C@H]1[C@@H](c2cc(C(F)(F)F)cc(C(F)(F)F)c2)OC(=O)N1C(=O)/C=C/c1cncc2ccccc12` [Example 100, (4S,5R)-5-(3,5-bis(trifluoromethyl)phenyl)-3-((E)-3-(isoquinolin-4-yl)acryloyl)-4-methyloxazolidin-2-one], the “MITC95 TarO inhibitor + 4 μg/mL IPM” value in the assay with MRSA COL (MB5393) [1] amounted to 1.60 µM. For the same molecule, in the assay with MRSA COL (MB5393) [2], the IC95 is > 200 µM.

`O=C(CCc1cncc2ccccc12)N1C(=O)O[C@H](c2cc(C(F)(F)F)cc(C(F)(F)F)c2)C12CC2` [Example 101, (R)-7-(3,5-bis(trifluoromethyl)phenyl)-4-(3-(isoquinolin-4-yl)propanoyl)-6-oxa-4-azaspiro[2.4]heptan-5-one]: the “MITC95 TarO inhibitor + 4 μg/mL IPM” value in the assay with MRSA COL (MB5393) [1] is 0.20 µM. Also, the IC95 in the assay with MRSA COL (MB5393) [2] is > 200 µM.

Consider `C[C@@H](O)[C@H]1C(=O)N2C(C(=O)O)=C(SCCN=CN)C[C@H]12` [Imipenem, imipenem, reference compound], for which the “MITC95 concentration of β-lactam antibiotic alone” value with MRSA COL (MB5393) [1] (β-lactam alone, MRSA COL) worked out at 32 µg/mL. Further, in the assay on MRSA COL (MB 5393) (Imipenem alone 5 mg/kg), the “Fold reduction vs. vehicle alone” value is reported as 4.6 and the Bacteria recovered is 1.3 × 10^7 cfu/g kidney.
